Assay results published in paper PMC3546729, “Electrochemical Characterization of Escherichia coli Adaptive Response Protein AidB” (International Journal of Molecular Sciences, 2012).

Tests used:
AidB [1] = biological target: T1, AidB (Escherichia coli, UniProt P33224); assay: UV-visible spectroscopy and redox potentiometry of bound flavin; assay type: binding; settings: bound FAD of the purified protein; pH 8.0, 300 mM NaCl, anaerobic
T1 construct: predominantly tetramer in solution
T1 sequence (P33224 1-541): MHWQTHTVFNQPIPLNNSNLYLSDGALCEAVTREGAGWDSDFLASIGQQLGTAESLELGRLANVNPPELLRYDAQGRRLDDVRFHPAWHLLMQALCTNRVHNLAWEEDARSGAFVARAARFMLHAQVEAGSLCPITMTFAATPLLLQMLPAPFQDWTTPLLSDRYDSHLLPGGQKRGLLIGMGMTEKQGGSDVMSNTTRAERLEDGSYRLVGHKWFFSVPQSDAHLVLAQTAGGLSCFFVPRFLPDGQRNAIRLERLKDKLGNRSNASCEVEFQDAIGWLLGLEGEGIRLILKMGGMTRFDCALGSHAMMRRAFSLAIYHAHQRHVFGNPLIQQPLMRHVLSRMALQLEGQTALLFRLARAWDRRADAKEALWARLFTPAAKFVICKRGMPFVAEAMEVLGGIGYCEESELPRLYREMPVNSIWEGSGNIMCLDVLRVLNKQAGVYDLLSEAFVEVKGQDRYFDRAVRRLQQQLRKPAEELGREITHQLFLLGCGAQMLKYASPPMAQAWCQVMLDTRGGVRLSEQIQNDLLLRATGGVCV

AidB [2] = biological target: T1, AidB; assay: shift of flavin midpoint reduction potential (xanthine/xanthine oxidase redox potentiometry), two-state binding fit; settings: read-out: Kd^app

| Kd (AidB [2]) | Compound | UV-visible spectroscopy and redox potentiometry of bound flavin (AidB [1]) |
| --- | --- | --- |
|  | Cc1cc2nc3c(=O)[nH]c(=O)nc-3n(C[C@H](O)[C@H](O)[C@H](O)COP(=O)(O)OP(=O)(O)OC[C@H]3O[C@@H](n4cnc5c(N)ncnc54)[C@H](O)[C@@H]3O)c2cc1C [FAD] | Reduction potentials of the AidB FAD cofactor were measured using the xanthine/xanthine oxidase system |
| 87 ± 27 µM | CC(C)CC(=O)SCCNC(=O)CCNC(=O)[C@H](O)C(C)(C)COP(=O)(O)OP(=O)(O)OC[C@H]1O[C@@H](n2cnc3c(N)ncnc32)[C@H](O)[C@@H]1OP(=O)(O)O [IVCoA] |  |
